The values that follow come from US12358901B2, “KV3 modulators” (priority 2018, dated 2025).

In data set [1] the target is human Kv3.1 channels (hKv3.1) (Homo sapiens, UniProt P48547). Briefly: cell-based. It counts as cell-based. As to conditions: for Kv3.1 pEC50: HEK-hKv3.1 cells, -15 mV voltage step, normalised to 50 microM reference compound; for Kv3.1 max R %: maximum response relative to reference compound (50 microM). An excerpt: The ability of the compounds of the invention to modulate the voltage-gated potassium channel subtypes Kv3.3/Kv3.2/Kv3.1 may be determined using the following assay. Analogous methods may be used to investigate the ability of the compounds of the invention to modulate other channel subtypes.
To assess compound effects on human Kv3.1 channels (hKv3.1):
Human embryonic kidney (HEK)-hKv3.1 cell line is generated by transfecting HEK-293 cells with an expression vector with human Kv3.1 (NM_004976.4). Cells are cultured with MEM supplemented with 10% Heat-Inactivated FBS, 2 mM L-glutamine, 1% Penicillin-Streptomycin, and 0.6 mg/ml of Geneticin (G418). HEK-hKv3.1b cells were amplified in T175 cm2 flask at 37° C. with 5% CO2, using MEM amplification medium, containing the G418 selection antibiotic (0.6 mg/ml). Cells were detached every 3-4 days, using DPBS to wash twice the flask, then TrypLE to dislodge the cells, and re-plated at a density of 2-4×10^6 cells/flask.
The day of the experiment, cells are removed from the incubator and the culture medium removed. Cells are washed with 5 ml of Dulbecco's PBS (DPBS) calcium and magnesium free and detached by the addition of 3 ml Versene (Invitrogen, Italy) followed by a brief incubation at 37° C. for 5 minutes. The flask is tapped to dislodge cells and 10 ml of DPBS containing calcium and magnesium is added to prepare a cell suspension. The cell suspension is then placed into a 15 ml centrifuge tube and centrifuged for 2 min at 1200 rpm. After centrifugation, the supernatant is removed and the cell pellet re-suspended in 4 ml of DPBS containing calcium and magnesium using a 5 ml pipette to break up the pellet. Cell suspension volume is then corrected to give a cell concentration for the assay of approximately 3 million cells per ml.
Experiments are conducted at r.t. using IonWorks Quattro™ planar array electrophysiology technology (Molecular Devices Corp.) with PatchPlate™ PPC. Stimulation protocols and data acquisition are carried out using a microcomputer (Dell Pentium 4). Planar electrode hole resistances (Rp) are determined by applying a 10 mV voltage step across each well. These measurements are performed before cell addition. After cell addition and seal formation, a seal test is performed by applying a voltage step from −80 mV to −70 mV for 160 ms. Following this, amphotericin-B solution is added to the intracellular face of the electrode to achieve intracellular access. Cells are held at −70 mV. Leak subtraction is conducted in all experiments by applying 50 ms hyperpolarizing (10 mV) prepulses to evoke leak currents followed by a 20 ms period at the holding potential before test pulses.
For hKv3.2 and hKv3.1, assays from the holding potential of −70 mV, a first test pulse at −15 mV was applied for 100 ms and after 100 ms at −70 mV a second pulse at +40 mV was applied for 50 ms. Cells were then maintained for 100 ms at −100 mV and another pulse from −70 mV to +40 mV (duration 50 ms) was applied to clamp later the voltage at −40 mV during 200 ms
The intracellular solution contains the following (in mM): K-gluconate 100, KCl 54, MgCl2 3.2, HEPES 5, adjusted to pH 7.3 with KOH. Amphotericin-B solution is prepared as 50 mg/ml stock solution in DMSO and diluted to a final working concentration of 0.1 mg/ml in intracellular solution. The external solution is Dulbecco's Phosphate Buffered Saline (DPBS) and contained the following (in mM): CaCl2 0.90, KCl 2.67, KH2PO4 1.47, MgCl·6H2O 0.493, NaCl 136.9, Na3PO4 8.06, with a pH of 7.4.
Compounds of use in the invention (or reference compounds such as N-cyclohexyl-N-[(7,8-dimethyl-2-oxo-1,2-dihydro-3-quinolinyl)methyl]-N-phenylurea) are dissolved in dimethylsulfoxide (DMSO) at a stock concentration of 10 mM. These solutions are further diluted with DMSO using a Biomek FX (Beckman Coulter) in a 384 compound plate. Each dilution (1 μL) is transferred to another compound plate and external solution containing 0.05% pluronic acid (66 μL) is added. […]

Data set [2] can be described thus: Determination of brain tissue binding (equilibrium dialysis). It counts as in vitro ADME. As to conditions: Sprague Dawley, rat whole brain homogenate, 5 h at 37° C. How it is done:
Sprague Dawley rat whole blood, collected on the week of the experiment using K3-EDTA as an anti-coagulant, is diluted with isotonic phosphate buffer 1:1 (v/v). Sprague Dawley rat whole brain, stored frozen at −20° C., is thawed and homogenised in artificial cerebrospinal fluid (CSF) 1:2 (w/v).
An appropriate amount of test compound is dissolved in DMSO to give a 10 millimolar solution. Further dilutions, to obtain a 166.7 micromolar working solution are then prepared using 50% acetonitrile in MilliQ water. This working solution is used to spike the blood to obtain a final concentration of 0.5 micromolar in whole blood. Similarly, the working solution is used to spike brain samples to obtain a final concentration of 5 micromolar in whole brain. From these spiked blood and brain preparations, control samples (n=3), are immediately extracted and used to calculate the initial recovery of the test items.
150 microL of compound-free buffer (isotonic phosphate buffer for blood or artificial CSF buffer for brain) is dispensed in one half-well and 150 microL of spiked matrix (blood or brain) is loaded in the other half-well, with the two halves separated by a semi-permeable membrane. After an equilibration period of 5 h at 37° C., 50 microL of dialysed matrix (blood or brain) is added to 50 microL of corresponding compound-free buffer, and vice-versa for buffer, such that the volume of buffer to matrix (blood or brain) remains the same. Samples are then extracted by protein precipitation with 300 microL of acetonitrile containing rolipram (control for positive ionization mode) or diclofenac (control for negative ionization mode) as internal standards and centrifuged for 10 min at 3000 rpm. Supernatants are collected (100 microL), diluted with 27% AcN in MilliQ water (200 microL) and then injected into an HPLC-MS/MS or UPLC-MS/MS system to determine the concentration of test compound present.
Blood and brain tissue binding are then determined using the following formulas: Afu=Buffer/Blood or Afu=CSF/Brain
Where Afu=apparent fraction unbound; Buffer=analyte/internal standard ratio determined in the buffer compartment; Blood=analyte/internal standard ratio determined in the blood compartment; Brain=analyte/internal standard ratio determined in the brain compartment.
[formula] where: fucr=Fraction unbound corrected; D=matrix dilution factor (D=2 for blood and D=3 for brain).
Then: % Binding=(1−fucr)×100 % Unbound=100−% Bound Brain/Blood Partition Ratio (Kbb) Determination
Background: Equilibrium dialysis compares concentrations on both sides of a semipermeable membrane.

Data set [3] deals with Salmonella typhimurium (TA1535, TA1537, TA98 and TA100) and Escherichia coli WP2 uvrA (pKM101). Briefly: Ames testing (bacterial mutagenicity, with and without S9-mix). As to conditions: absence and presence of S9-mix; for Ames Result (compound): 5 to 5000 ug/plate; for Ames Result (associated aniline): aniline associated with the compound. In general terms: The Ames test detects mutagens through reverse mutation in bacteria.

For `Cc1ccc(Oc2cnc(N3C(=O)NC(C)(C)C3=O)cn2)c2c1OCC21CC1` [Example 1, 5,5-dimethyl-3-[5-(7-methylspiro[2H-benzofuran-3,1′-cyclopropane]-4-yl)oxypyrazin-2-yl]imidazolidine-2,4-dione], in data set [1], it took 2750 nM to reach a half-maximal effect (EC50); the “pEC50 and maxR in the Kv3.1 assay (in words)” value was “high pEC50 and high maxR”; the “Kv3.1 pEC50” value is recorded as 5.47; the “Kv3.1 max R %” value turned out to be 164%. Besides, the free fraction (fraction unbound) (usually the share of the substance not bound to proteins or other matrix) at 5 h, 5 micromolar in data set [2] was determined as 0.043. In addition, the “Ames Result (compound)” value in data set [3] is “Non- mutagenic”.

With `Cc1ccc(Oc2ccc(N3C(=O)NC(C)(C)C3=O)cn2)c2c1OCC21CC1` [RE6, reference compound], in data set [1], the “Kv3.1 pEC50” value amounted to 5.58 and the “Kv3.1 max R %” value is listed as 144%. Further, in data set [2], the fraction unbound at 5 h, 5 micromolar is 0.028. Besides, the “Ames Result (compound)” value in data set [3] was “Non- mutagenic”.

Consider `CC[C@H]1NC(=O)N(c2ccc(Oc3cccc4c3C3(CC3)CO4)cn2)C1=O` [RE14, reference compound], for which, in data set [1], the “Kv3.1 pEC50” value is recorded as 5.2 and the “Kv3.1 max R %” value is reported as 150%. The compound also registered an unbound share (fraction unbound) at 5 h, 5 micromolar in data set [2] of 0.058.

Take `Cc1ccc(Oc2ccc(N)cn2)c2c1OCC21CC1` [aniline associated with RE6/RE11]: the “Ames Result (associated aniline)” value in data set [3] is on record as “Mutagenic for TA1535 in the presence of metabolic activation at 150 ug/plate”.

For `Nc1cnc(Oc2cccc3c2C2(CC2)CO3)cn1` [aniline for Example 10], in data set [3], the “Ames Result (associated aniline)” value is given as “Non-mutagenic”.

Take `Cc1ccc(Oc2cnc(N)cn2)c2c1OCC21CC1` [aniline for Examples 1 and 9]: the “Ames Result (associated aniline)” value in data set [3] is listed as “Non-mutagenic”.
